Reference: ChEMBL document CHEMBL1201861, “Genomics of Drug Sensitity in Cancer screening data, Wellcome Trust Sanger Institute”

Columns and labels:
Experiment in all cases: cells
Settings in all cases: Homo sapiens
COLO-824 = type: functional, cell-based
Description: SANGER: Inhibition of human COLO-824 cell growth in a cell viability assay.

COR-L88 = type: functional, cell-based;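 further: growth inhibition of COR-L88 cells, read out with a cell viability assay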
Description: SANGER: Inhibition of human COR-L88 cell growth in a cell viability assay.

CTV-1 = type: functional, cell-based;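 further: growth inhibition of the cell line, read out with a cell viability assay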
Description: SANGER: Inhibition of human CTV-1 cell growth in a cell viability assay.

D-263MG = type: functional, cell-based
Description: SANGER: Inhibition of human D-263MG cell growth in a cell viability assay.

DOHH-2 = type: functional, cell-based;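 further: growth inhibition of human DOHH-2 cells, read out with a cell viability assay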
Description: SANGER: Inhibition of human DOHH-2 cell growth in a cell viability assay.

DSH1 = type: functional, cell-based;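 further: growth inhibition of human DSH1 cells, measured with a cell viability readout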
Description: SANGER: Inhibition of human DSH1 cell growth in a cell viability assay.

ES4 = type: functional, cell-based;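 further: growth inhibition of human ES4 cells, read out by a cell viability assay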
Description: SANGER: Inhibition of human ES4 cell growth in a cell viability assay.

ES5 = type: functional, cell-based;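 further: growth inhibition of human ES5 cells, read out by a cell viability assay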
Description: SANGER: Inhibition of human ES5 cell growth in a cell viability assay.

ETK-1 = type: functional, cell-based;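 further: growth inhibition of human ETK-1 cells, read out with a cell viability assay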
Description: SANGER: Inhibition of human ETK-1 cell growth in a cell viability assay.

EW-1 = type: functional, cell-based
Description: SANGER: Inhibition of human EW-1 cell growth in a cell viability assay.

EW-13 = type: functional, cell-based;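 further: growth inhibition of EW-13 cells, read out with a cell viability assay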
Description: SANGER: Inhibition of human EW-13 cell growth in a cell viability assay.

GT3TKB = type: functional, cell-based;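 further: growth inhibition of the cell line, read out with a cell viability assay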
Description: SANGER: Inhibition of human GT3TKB cell growth in a cell viability assay.

HEL = type: functional, cell-based;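 further: growth inhibition of HEL cells, read out with a cell viability assay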
Description: SANGER: Inhibition of human HEL cell growth in a cell viability assay.

HL-60 = type: functional, cell-based;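 further: growth inhibition of human HL-60 cells, read out with a cell viability assay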
Description: SANGER: Inhibition of human HL-60 cell growth in a cell viability assay.

HuTu80 = type: functional, cell-based, HUTU-80;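 further: growth inhibition of HuTu80 human cells, determined with a cell viability readout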
Description: SANGER: Inhibition of human HUTU-80 cell growth in a cell viability assay.

IST-MEL1 = type: functional, cell-based;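 further: growth inhibition of the cell line, read out with a cell viability assay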
Description: SANGER: Inhibition of human IST-MEL1 cell growth in a cell viability assay.

JAR = type: functional, cell-based;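 further: growth inhibition of human JAR cells determined with a cell viability assay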
Description: SANGER: Inhibition of human JAR cell growth in a cell viability assay.

KARPAS-45 = type: functional, cell-based;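 further: inhibition of cell line growth, read out through a viability assay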
Description: SANGER: Inhibition of human KARPAS-45 cell growth in a cell viability assay.

KE-37 = type: functional, cell-based;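 further: growth inhibition of KE-37 cells, read out with a cell viability assay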
Description: SANGER: Inhibition of human KE-37 cell growth in a cell viability assay.

KM-H2 = type: functional, cell-based;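 further: growth inhibition of KM-H2 cells, read out by a cell viability assay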
Description: SANGER: Inhibition of human KM-H2 cell growth in a cell viability assay.

KM12 = type: functional, cell-based;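 further: KM12 cell growth inhibition, read out with a cell viability assay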
Description: SANGER: Inhibition of human KM12 cell growth in a cell viability assay.

KMOE-2 = type: functional, cell-based;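 further: growth inhibition of human KMOE-2 cells, read out with a cell viability assay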
Description: SANGER: Inhibition of human KMOE-2 cell growth in a cell viability assay.

KNS-42 = type: functional, cell-based;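 further: growth inhibition of KNS-42 cells, read out with a cell viability assay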
Description: SANGER: Inhibition of human KNS-42 cell growth in a cell viability assay.

KS-1 = type: functional, cell-based;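 further: growth inhibition of KS-1 cells, read out with a cell viability assay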
Description: SANGER: Inhibition of human KS-1 cell growth in a cell viability assay.

KY821 = type: functional, cell-based;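 further: growth inhibition of human KY821 cells, read out by a cell viability assay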
Description: SANGER: Inhibition of human KY821 cell growth in a cell viability assay.

L-428 = type: functional, cell-based
Description: SANGER: Inhibition of human L-428 cell growth in a cell viability assay.

LAMA-84 = type: functional, cell-based;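 further: growth inhibition of LAMA-84 cells, read out with a cell viability assay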
Description: SANGER: Inhibition of human LAMA-84 cell growth in a cell viability assay.

LB1047-RCC = type: functional, cell-based;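 further: inhibition of cell growth, determined with a cell viability assay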
Description: SANGER: Inhibition of human LB1047-RCC cell growth in a cell viability assay.

LB831-BLC = type: functional, cell-based;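 further: growth inhibition of LB831-BLC cells, read out with a cell viability assay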
Description: SANGER: Inhibition of human LB831-BLC cell growth in a cell viability assay.

LNCaP-Clone-FGC = type: functional, cell-based
Description: SANGER: Inhibition of human LNCaP-Clone-FGC cell growth in a cell viability assay.

LXF-289 cell line = type: functional, cell-based
Description: SANGER: Inhibition of human LXF-289 cell growth in a cell viability assay.

MEG-01 = type: functional, cell-based;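 further: growth inhibition of MEG-01 cells, read out by a cell viability assay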
Description: SANGER: Inhibition of human MEG-01 cell growth in a cell viability assay.

MFM-223 = type: functional, cell-based
Description: SANGER: Inhibition of human MFM-223 cell growth in a cell viability assay.

MHH-NB-11 = type: functional, cell-based;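 further: growth inhibition of human MHH-NB-11 cells, read out by a cell viability assay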
Description: SANGER: Inhibition of human MHH-NB-11 cell growth in a cell viability assay.

MMAC-SF = type: functional, cell-based;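 further: growth inhibition of human MMAC-SF cells, read out with a cell viability assay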
Description: SANGER: Inhibition of human MMAC-SF cell growth in a cell viability assay.

MN-60 = type: functional, cell-based;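 further: growth inhibition of the MN-60 cell line, determined with a cell viability assay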
Description: SANGER: Inhibition of human MN-60 cell growth in a cell viability assay.

MOLT-16 = type: functional, cell-based;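 further: growth inhibition of human MOLT-16 cells, read out with a cell viability assay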
Description: SANGER: Inhibition of human MOLT-16 cell growth in a cell viability assay.

Mo = type: functional, cell-based
Description: SANGER: Inhibition of human Mo-T cell growth in a cell viability assay.

NCI-H1304 = type: functional, cell-based;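 further: growth inhibition of the cancer cell line, measured in a cell viability assay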
Description: SANGER: Inhibition of human NCI-H1304 cell growth in a cell viability assay.

NCI-H82 = type: functional, cell-based;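 further: growth inhibition of NCI-H82 cells, measured with a cell viability readout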
Description: SANGER: Inhibition of human NCI-H82 cell growth in a cell viability assay.

SNU-5 = type: functional, cell-based;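 further: cell viability readout used to measure growth inhibition in human NCI-SNU-5 cells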
Description: SANGER: Inhibition of human NCI-SNU-5 cell growth in a cell viability assay.

NOMO-1 = type: functional, cell-based;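 further: growth inhibition of human NOMO-1 cells measured by a cell viability assay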
Description: SANGER: Inhibition of human NOMO-1 cell growth in a cell viability assay.

NTERA-2-cl-D1 = type: functional, cell-based;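 further: inhibition of cell growth, measured with a cell viability assay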
Description: SANGER: Inhibition of human NTERA-S-cl-D1 cell growth in a cell viability assay.

OCUB-M = type: functional, cell-based;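 further: growth inhibition of the cancer cell line, read out through a cell viability assay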
Description: SANGER: Inhibition of human OCUB-M cell growth in a cell viability assay.

OS-RC-2 = type: functional, cell-based;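 further: growth inhibition of human OS-RC-2 cells, measured by a cell viability assay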
Description: SANGER: Inhibition of human OS-RC-2 cell growth in a cell viability assay.

RCC10RGB = type: functional, cell-based;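 further: growth inhibition of human RCC10RGB cells, read out by a cell viability assay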
Description: SANGER: Inhibition of human RCC10RGB cell growth in a cell viability assay.

RH-1 = type: functional, cell-based;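 further: growth inhibition of human RH-1 cells, read out with a cell viability assay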
Description: SANGER: Inhibition of human RH-1 cell growth in a cell viability assay.

SCH = type: functional, cell-based;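 further: growth inhibition of human SCH cells, read out in a cell viability assay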
Description: SANGER: Inhibition of human SCH cell growth in a cell viability assay.

SK-LMS-1 = type: functional, cell-based;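 further: growth inhibition of human SK-LMS-1 cells, read out with a cell viability assay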
Description: SANGER: Inhibition of human SK-LMS-1 cell growth in a cell viability assay.

SK-UT-1 = type: functional, cell-based;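 further: growth inhibition of SK-UT-1 cells, measured by a cell viability assay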
Description: SANGER: Inhibition of human SK-UT-1 cell growth in a cell viability assay.

8-MG-BA = type: functional, cell-based;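 further: growth inhibition of 8-MG-BA cells, read out with a cell viability assay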
Description: SANGER: Inhibition of human 8-MG-BA cell growth in a cell viability assay.

A3-KAW = type: functional, cell-based;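 further: growth inhibition of human A3-KAW cells, read out with a cell viability assay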
Description: SANGER: Inhibition of human A3-KAW cell growth in a cell viability assay.

A388 = type: functional, cell-based;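 further: growth inhibition of human A388 cells, read out with a cell viability assay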
Description: SANGER: Inhibition of human A388 cell growth in a cell viability assay.

A498 = type: functional, cell-based;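 further: growth inhibition of human A498 cells, read out with a cell viability assay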
Description: SANGER: Inhibition of human A498 cell growth in a cell viability assay.

A704 = type: functional, cell-based;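 further: growth inhibition of human A704 cells, read out with a cell viability assay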
Description: SANGER: Inhibition of human A704 cell growth in a cell viability assay.

BB49-HNC = type: functional, cell-based;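 further: cell viability assay read-out, reported as inhibition of BB49-HNC cell growth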
Description: SANGER: Inhibition of human BB49-HNC cell growth in a cell viability assay.

BE-13 = type: functional, cell-based
Description: SANGER: Inhibition of human BE-13 cell growth in a cell viability assay.

BT-474 = type: functional, cell-based
Description: SANGER: Inhibition of human BT-474 cell growth in a cell viability assay.

BV-173 = type: functional, cell-based
Description: SANGER: Inhibition of human BV-173 cell growth in a cell viability assay.

C2BBe1 = type: functional, cell-based
Description: SANGER: Inhibition of human C2BBe1 cell growth in a cell viability assay.

C8166 = type: functional, cell-based
Description: SANGER: Inhibition of human C8166 cell growth in a cell viability assay.

TE-10 = type: functional, cell-based
Description: SANGER: Inhibition of human TE-10 cell growth in a cell viability assay.

TE-11 = type: functional, cell-based
Description: SANGER: Inhibition of human TE-11 cell growth in a cell viability assay.

TE-6 = type: functional, cell-based
Description: SANGER: Inhibition of human TE-6 cell growth in a cell viability assay.

CCRF-CEM = type: functional, cell-based
Description: SANGER: Inhibition of human CCRF-CEM cell growth in a cell viability assay.

COLO-684 = type: functional, cell-based
Description: SANGER: Inhibition of human COLO-684 cell growth in a cell viability assay.

Compound: C/C(O)=C(\C#N)C(=O)Nc1cc(Br)ccc1Br
- IC50 (COLO-824): > 16 µM
- IC50 (COR-L88): > 16 µM
- IC50 (CTV-1): > 16 µM
- IC50 (D-263MG): > 16 µM
- IC50 (DOHH-2): > 16 µM
- IC50 (DSH1): > 16 µM
- IC50 (ES4): > 16 µM
- IC50 (ES5): > 16 µM
- IC50 (ETK-1): > 16 µM
- IC50 (EW-1): > 16 µM
- IC50 (EW-13): > 16 µM
- IC50 (GT3TKB): > 16 µM
- IC50 (HEL): > 16 µM
- IC50 (HL-60): > 16 µM
- IC50 (HuTu80): > 16 µM
- IC50 (IST-MEL1): > 16 µM
- IC50 (JAR): > 16 µM
- IC50 (KARPAS-45): > 16 µM
- IC50 (KE-37): > 16 µM
- IC50 (KM-H2): > 16 µM
- IC50 (KM12): > 16 µM
- IC50 (KMOE-2): > 16 µM
- IC50 (KNS-42): > 16 µM
- IC50 (KS-1): > 16 µM
- IC50 (KY821): > 16 µM
- IC50 (L-428): > 16 µM
- IC50 (LAMA-84): > 16 µM
- IC50 (LB1047-RCC): > 16 µM
- IC50 (LB831-BLC): > 16 µM
- IC50 (LNCaP-Clone-FGC): > 16 µM
- IC50 (LXF-289 cell line): > 16 µM
- IC50 (MEG-01): > 16 µM
- IC50 (MFM-223): > 16 µM
- IC50 (MHH-NB-11): > 16 µM
- IC50 (MMAC-SF): > 16 µM
- IC50 (MN-60): > 16 µM
- IC50 (MOLT-16): > 16 µM
- IC50 (Mo): > 16 µM
- IC50 (NCI-H1304): > 16 µM
- IC50 (NCI-H82): > 16 µM
- IC50 (SNU-5): > 16 µM
- IC50 (NOMO-1): > 16 µM
- IC50 (NTERA-2-cl-D1): > 16 µM
- IC50 (OCUB-M): > 16 µM
- IC50 (OS-RC-2): > 16 µM
- IC50 (RCC10RGB): > 16 µM
- IC50 (RH-1): > 16 µM
- IC50 (SCH): > 16 µM
- IC50 (SK-LMS-1): > 16 µM
- IC50 (SK-UT-1): > 16 µM
- IC50 (8-MG-BA): > 16 µM
- IC50 (A3-KAW): > 16 µM
- IC50 (A388): > 16 µM
- IC50 (A498): > 16 µM
- IC50 (A704): > 16 µM
- IC50 (BB49-HNC): > 16 µM
- IC50 (BE-13): > 16 µM
- IC50 (BT-474): > 16 µM
- IC50 (BV-173): > 16 µM
- IC50 (C2BBe1): > 16 µM
- IC50 (C8166): > 16 µM
- IC50 (TE-10): > 16 µM
- IC50 (TE-11): > 16 µM
- IC50 (TE-6): > 16 µM
- IC50 (CCRF-CEM): > 16 µM
- IC50 (COLO-684): > 16 µM

Compound: O=c1[nH]c2ccccc2n1C1CCN(Cc2ccc(-c3nc4cc5[nH]cnc5cc4nc3-c3ccccc3)cc2)CC1
- IC50 (COLO-824): > 2.56 µM
- IC50 (COR-L88): > 2.56 µM
- IC50 (CTV-1): > 2.56 µM
- IC50 (D-263MG): > 2.56 µM
- IC50 (DOHH-2): > 2.56 µM
- IC50 (DSH1): 0.987 µM
- IC50 (ES4): > 2.56 µM
- IC50 (ES5): > 2.56 µM
- IC50 (ETK-1): > 2.56 µM
- IC50 (EW-1): > 2.56 µM
- IC50 (EW-13): > 2.56 µM
- IC50 (GT3TKB): > 2.56 µM
- IC50 (HEL): > 2.56 µM
- IC50 (HL-60): > 2.56 µM
- IC50 (HuTu80): > 2.56 µM
- IC50 (IST-MEL1): > 2.56 µM
- IC50 (JAR): > 2.56 µM
- IC50 (KARPAS-45): > 2.56 µM
- IC50 (KE-37): 1.84 µM
- IC50 (KM-H2): > 2.56 µM
- IC50 (KM12): > 2.56 µM
- IC50 (KMOE-2): > 2.56 µM
- IC50 (KNS-42): > 2.56 µM
- IC50 (KS-1): > 2.56 µM
- IC50 (KY821): > 2.56 µM
- IC50 (L-428): > 2.56 µM
- IC50 (LAMA-84): > 2.56 µM
- IC50 (LB1047-RCC): > 2.56 µM
- IC50 (LB831-BLC): > 2.56 µM
- IC50 (LNCaP-Clone-FGC): > 2.56 µM
- IC50 (LXF-289 cell line): 1.76 µM
- IC50 (MEG-01): > 2.56 µM
- IC50 (MFM-223): > 2.56 µM
- IC50 (MHH-NB-11): > 2.56 µM
- IC50 (MMAC-SF): > 2.56 µM
- IC50 (MN-60): > 2.56 µM
- IC50 (MOLT-16): > 2.56 µM
- IC50 (Mo): > 2.56 µM
- IC50 (NCI-H1304): > 2.56 µM
- IC50 (NCI-H82): > 2.56 µM
- IC50 (SNU-5): > 2.56 µM
- IC50 (NOMO-1): > 2.56 µM
- IC50 (NTERA-2-cl-D1): > 2.56 µM
- IC50 (OCUB-M): > 2.56 µM
- IC50 (OS-RC-2): > 2.56 µM
- IC50 (RCC10RGB): > 2.56 µM
- IC50 (RH-1): > 2.56 µM
- IC50 (SCH): > 2.56 µM
- IC50 (SK-LMS-1): > 2.56 µM
- IC50 (SK-UT-1): 1.35 µM
- IC50 (8-MG-BA): > 2.56 µM
- IC50 (A3-KAW): > 2.56 µM
- IC50 (A388): > 2.56 µM
- IC50 (A498): 1.08 µM
- IC50 (A704): > 2.56 µM
- IC50 (BB49-HNC): > 2.56 µM
- IC50 (BE-13): > 2.56 µM
- IC50 (BT-474): > 2.56 µM
- IC50 (BV-173): > 2.56 µM
- IC50 (C2BBe1): > 2.56 µM
- IC50 (C8166): > 2.56 µM
- IC50 (TE-10): > 2.56 µM
- IC50 (TE-11): > 2.56 µM
- IC50 (TE-6): > 2.56 µM
- IC50 (CCRF-CEM): > 2.56 µM
- IC50 (COLO-684): > 2.56 µM
